Experiments:
blood glucose [1] = test: Enhancement of insulin sensitivity in rats; assay type: in vivo; conditions: 10 mg/kg/day p.o. once daily for 5 days; fasted 18 hours; insulin 0.1 unit/kg i.p.; n=5; *P < 0.01
Description: Blood samples were collected from the tail vein 0 and 1 hour after the injection of insulin for the determination of blood glucose (Table 1).

blood glucose [2] = test: Improvement of glucose tolerance in genetically obese mice (OGTT); assay type: in vivo, Genetically obese mice (CS57BL ob/ob mice); conditions: fasted 18 hours, 2 g/kg glucose orally, blood at 0, 30, 60, 120 min
Description: Improvement of glucose tolerance in genetically obese mice
Genetically obese mice (CS57BL ob/ob mice) were orally administered with the compound of Example 23 once daily for 5 days at 10, 30 or 100 mg/kg/day, respectively. They were fasted for 18 hours and then 2 g/kg of glucose was orally administered. Blood samples were collected from the tail vein 0, 30, 60 and 120 minutes after the administration of glucose for the determination of blood glucose (Table 2).

[3] = target: T1, aldose reductase extracted from rat lens (Rattus norvegicus, UniProt P07943); test: Inhibition of aldose reductase in vitro; assay type: biochemical; conditions: method of Hyman and Kinoshita
T1 construct: aldose reductase extracted from rat lens; from tissue; host or cells: rat lens
Text: Inhibition of aldose reductase in vitro
According to the method of Hyman and Kinoshita (J. Biol. Chem., 240, 877, 1965), inhibitory activity of the compound of Example 23 on aldose reductase extracted from rat lens was investigated. As a result, the following IC50 value was obtained (Table 3).

[4] = system: sorbitol content in nerve; test: Inhibition on sorbitol accumulation in nerve of diabetic rats; assay type: in vivo; conditions: Rattus norvegicus, po, 336 h, streptozotocin rats, 4, 16 or 64 mg/kg/day p.o. once daily 2 weeks
Description: (§1) Inhibition on sorbitol accumulation in tissues of diabetic rats
(§2) After diabetic rats were prepared by injecting streptozotocin, they were orally administered with the compound of Example 23 once daily 2 weeks at 4, 16 or 64 mg/kg/day, respectively. The sorbitol content in nerve and retina was determined to calculate ED50 value (Table 4).

[5] = system: sorbitol content in retina; test: Inhibition on sorbitol accumulation in retina of diabetic rats; assay type: in vivo; conditions: Rattus norvegicus, po, 336 h, streptozotocin rats, 4, 16 or 64 mg/kg/day p.o. once daily 2 weeks
Description: as §1, §2

IC50 [3]: 90 nM
Compound: O=C1NC(=O)C(c2ccc(NC(=O)c3ccc(Cl)cc3Cl)cc2)S1 (stereo not shown) [Example 23]
0 hour value - 1 hour value (blood glucose) (blood glucose [1]): 19.4 ± 1.5 mg %
OGTT (% of control) (blood glucose [2]; 10 mg/kg/day p.o. once daily for 5 days): 93.5 % of control
OGTT (% of control) (blood glucose [2]; 30 mg/kg/day p.o. once daily for 5 days): 89.2 % of control
OGTT (% of control) (blood glucose [2]; 100 mg/kg/day p.o. once daily for 5 days): 74.1 % of control
ED50 [4]: 14.5 mg/kg
ED50 [5]: 26.5 mg/kg
